Converted amounts (≈) assume the structure as drawn. The source made the active and inactive calls. No cut-off for these calls is given here.
Columns and labels:
Cryptococcus neoformans = assay: Antifungal activity against Cryptococcus neoformans; format: functional, organism-based
Plasmodium falciparum [1] = assay: Antimalarial activity after 72 hrs against chloroquine-sensitive Plasmodium falciparum D6 in erythrocytes by LDH reporter assay; format: functional, organism-based; conditions: D6, 72 h
[2] = biological target: T1, Acetylcholinesterase (Bos taurus) (UniProt P23795); assay: Inhibition of bovine AChE
T1 sequence (whole entry): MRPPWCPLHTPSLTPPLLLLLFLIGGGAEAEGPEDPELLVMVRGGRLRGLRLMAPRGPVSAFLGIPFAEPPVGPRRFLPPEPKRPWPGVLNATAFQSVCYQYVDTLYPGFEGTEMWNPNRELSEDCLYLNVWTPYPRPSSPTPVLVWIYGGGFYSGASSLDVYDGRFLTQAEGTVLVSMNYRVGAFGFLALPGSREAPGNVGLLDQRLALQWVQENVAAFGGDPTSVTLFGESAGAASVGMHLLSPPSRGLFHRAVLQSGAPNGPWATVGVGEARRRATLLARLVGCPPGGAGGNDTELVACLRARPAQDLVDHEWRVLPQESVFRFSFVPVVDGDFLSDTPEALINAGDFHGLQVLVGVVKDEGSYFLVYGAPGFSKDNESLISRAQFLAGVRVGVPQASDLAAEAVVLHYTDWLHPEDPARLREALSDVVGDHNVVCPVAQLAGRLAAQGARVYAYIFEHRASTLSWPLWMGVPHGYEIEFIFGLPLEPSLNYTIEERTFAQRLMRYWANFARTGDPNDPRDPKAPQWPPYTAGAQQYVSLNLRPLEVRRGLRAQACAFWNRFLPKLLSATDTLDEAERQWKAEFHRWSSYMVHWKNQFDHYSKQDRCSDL

[3] = test system: Mycobacterium intracellulare; assay: Antibacterial activity against Mycobacterium intracellular by alamar blue assay; format: functional, organism-based
Plasmodium falciparum [4] = assay: Antimalarial activity after 72 hrs against chloroquine-resistant Plasmodium falciparum W2 in erythrocytes at […] by LDH reporter assay; format: functional, organism-based
[5] = test system: Mycobacterium tuberculosis; assay: Antituberculosis activity against Mycobacterium tuberculosis H37Rv at 64 ug/mL after 24 hrs by alamar blue assay; format: functional, organism-based
[6] = biological target: Beta-secretase 1 (Homo sapiens) (UniProt P56817); assay: Inhibition of human recombinant BACE1 by FRET-based assay
Beta-secretase 1 (Homo sapiens), sequence (P56817 whole entry): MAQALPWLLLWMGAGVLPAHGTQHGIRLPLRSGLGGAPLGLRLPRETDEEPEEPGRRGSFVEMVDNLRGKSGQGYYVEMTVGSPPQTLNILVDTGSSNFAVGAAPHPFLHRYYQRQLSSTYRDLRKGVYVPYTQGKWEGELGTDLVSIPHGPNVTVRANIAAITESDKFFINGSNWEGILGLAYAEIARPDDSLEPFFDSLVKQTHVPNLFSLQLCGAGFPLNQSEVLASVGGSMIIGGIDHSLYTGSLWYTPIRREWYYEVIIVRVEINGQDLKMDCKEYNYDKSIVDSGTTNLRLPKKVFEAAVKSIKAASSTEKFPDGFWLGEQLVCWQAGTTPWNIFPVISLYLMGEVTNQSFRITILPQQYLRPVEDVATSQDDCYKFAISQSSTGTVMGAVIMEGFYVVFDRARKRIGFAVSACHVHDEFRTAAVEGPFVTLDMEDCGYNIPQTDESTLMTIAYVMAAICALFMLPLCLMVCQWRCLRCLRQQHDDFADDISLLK

Staphylococcus aureus [7] = assay: Antibacterial activity against Staphylococcus aureus; format: functional, organism-based
Staphylococcus aureus [8] = assay: Antibacterial activity against methicillin-resistant Staphylococcus aureus; format: functional, organism-based
Vero [9] = assay: Cytotoxicity against african green monkey Vero cells at 4.76 ug/mL by neutral red assay; format: cell-based; conditions: chlorocebus sabaeus
Leishmania donovani = assay: Antileishmanial activity against Leishmania donovani after 72 hrs by alamar blue assay; format: functional, organism-based
[10] = Toxicity against medaka eggs assessed as eggs failing to hatch up to 10.6 uM after 11 days relative to control; parameters: species or system Egg; conditions: oryzias latipes, 264 h
Plasmodium falciparum [11] = assay: Antimalarial activity after 72 hrs against chloroquine-resistant Plasmodium falciparum W2 in erythrocytes by LDH reporter assay; format: functional, organism-based; conditions: W2, 72 h
SH-SY5Y = assay: Cytotoxicity against human SH-SY5Y cells at 5 uM; format: cell-based
[12] = test system: Human immunodeficiency virus 1; assay: Antiviral activity against HIV1 3B assessed as reverse transcriptase activity by enzyme immunoassay; format: functional, organism-based; conditions: Human immunodeficiency virus 1, 3B
[13] = test system: Mycobacterium tuberculosis; assay: Antituberculosis activity against Mycobacterium tuberculosis H37Rv after 24 hrs by alamar blue assay; format: functional
[14] = biological target: Glycogen synthase kinase-3 beta (Homo sapiens) (UniProt P49841); assay: Inhibition of GSK3-beta in human SH-SY5Y cells assessed as inhibition of tau phosphorylation at Ser396 at 5 uM after 24 hrs by ELISA sandwich method; format: cell-based
Glycogen synthase kinase-3 beta (Homo sapiens), sequence (P49841 whole entry, looked up): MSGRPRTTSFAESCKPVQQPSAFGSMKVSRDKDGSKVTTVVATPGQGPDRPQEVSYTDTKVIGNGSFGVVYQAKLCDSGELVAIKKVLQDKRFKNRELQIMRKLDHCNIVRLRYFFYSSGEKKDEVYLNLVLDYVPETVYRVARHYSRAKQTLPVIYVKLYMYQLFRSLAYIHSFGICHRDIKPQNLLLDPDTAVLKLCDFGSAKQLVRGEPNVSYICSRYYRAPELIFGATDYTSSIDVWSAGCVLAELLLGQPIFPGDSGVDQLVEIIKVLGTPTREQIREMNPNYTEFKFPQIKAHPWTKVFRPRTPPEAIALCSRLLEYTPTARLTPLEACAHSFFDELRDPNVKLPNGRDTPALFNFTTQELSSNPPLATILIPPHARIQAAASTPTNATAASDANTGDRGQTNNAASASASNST

Vero [15] = assay: Cytotoxicity against african green monkey Vero cells by neutral red assay; format: cell-based; conditions: chlorocebus sabaeus
[16] = Toxicity against medaka eggs assessed as eggs failing to hatch after 11 days; parameters: species or system Egg; conditions: oryzias latipes, 264 h
[17] = Selectivity ratio of LD50 for medaka fry to ED50 for medaka eggs; conditions: oryzias latipes
[18] = test system: Voltage-gated calcium channel; assay: Blocking of calcium channel in human SH-SY5Y cells assessed as inhibition of KCL depolarization-induced cytosolic calcium increase at 1 uM; format: cell-based
[19] = biological target: Glycogen synthase kinase-3 beta (Homo sapiens) (UniProt P49841); assay: Inhibition of human recombinant GSK3-beta assessed as incorporation of [33P]gammaATP into G2S peptide at 25 uM
[20] = Toxicity against medaka fry after 96 hrs; format: organism-based; conditions: oryzias latipes, in vivo; read-out: LD50

## C1=C(c2nccc3c2[nH]c2ccccc23)[C@@H]2CCN3CCCC/C=C\CC[C@]14O[C@@]15/C=C\CCCCN1[C@@H]4[C@]2(C3)C5 [12,34-OXAMANZAMINE A]
Cryptococcus neoformans
  Activity: inactive
Plasmodium falciparum [1]
  IC50: 4.76 µg/mL (≈ 8.71 µM)
[2]
  Activity: inactive
[3]
  Activity: inactive
Plasmodium falciparum [4]
  Activity: inactive
[5]
  Activity: inactive
[6]
  Activity: inactive
Staphylococcus aureus [7]
  Activity: inactive
Staphylococcus aureus [8]
  Activity: inactive
Vero [9]
  Activity: Non-toxic
Leishmania donovani
  IC50: 14 µg/mL (≈ 25.6 µM)
  IC90: 40 µg/mL (≈ 73.2 µM)

## CCN(CC)CCCC(C)Nc1ccnc2cc(Cl)ccc12 (configuration not stated) [CHLOROQUINE]
[10]
  Activity: Not Active

## O[C@]12C=C(c3nccc4c3[nH]c3ccccc34)[C@@H]3CCN(CCCC/C=C\CC1)C[C@@]31C[C@@H]3/C=C\CCCCN3[C@H]12 [MANZAMINE A]
Cryptococcus neoformans
  IC50: 3 µg/mL (≈ 5.47 µM)
Plasmodium falciparum [11]
  IC50: 0.008 µg/mL (≈ 0.0146 µM)
Plasmodium falciparum [1]
  IC50: 0.0045 µg/mL (≈ 0.0082 µM)
[2]
  Activity: inactive
SH-SY5Y
  Activity: Non-toxic
[12]
  IC50: 4.2 µg/mL (≈ 7.65 µM)
[13]
  MIC: 1.5 µg/mL (≈ 2.73 µM)
[14]
  Activity: Active
Vero [15]
  IC50: 1.2 µg/mL (≈ 2.19 µM)
[16]
  ED50: 170 nM
[17]
  selectivity ratio: 2.3
[3]
  IC50: 0.35 µg/mL (≈ 0.638 µM)
[18]
  inhibition (INH): 20%
[6]
  Activity: inactive
[19]
  inhibition: 73.2%
Staphylococcus aureus [7]
  IC50: 0.5 µg/mL (≈ 0.911 µM)
[20]
  LC50 at 96 h: 74 nM
Staphylococcus aureus [8]
  IC50: 0.7 µg/mL (≈ 1.28 µM)
Leishmania donovani
  IC50: 0.9 µg/mL (≈ 1.64 µM)
  IC90: 1.8 µg/mL (≈ 3.28 µM)

## O[C@@H]1CCCN2CC[C@@H]1O[C@@]13CC[C@@H](OC[C@]45CN6CCCC/C=C\CC[C@](O)(C=C(c7nccc8c7[nH]c7ccccc78)[C@@H]4CC6)[C@H]25)[C@@H](O)CCN1[C@@H]1[C@]2(CN4CCCC/C=C\CC[C@]1(O)C=C(c1nccc5c1[nH]c1ccccc15)[C@@H]2CC4)C3 [NEO-KAULUAMINE]
[16]
  ED50: 2450 nM
[17]
  selectivity ratio: 3
[19]
  inhibition: 82%
[20]
  LC50 at 96 h: 820 nM

— ChEMBL document CHEMBL1142603, “Manzamine B and E and ircinal A related alkaloids from an Indonesian Acanthostrongylophora sponge and their activity against infectious, tropical parasitic, and Alzheimer's diseases” (J Nat Prod, 2006)
